Assay results: patent US12139458B2, “(2,5-dioxopyrrolidin-1-yl)(phenyl)-acetamide derivatives and their use in the treatment of neurological diseases” (UNIWERSYTET JAGIELLONSKI, priority 2019, dated 2024)

Assays:
[1] = Rotarod test (motor coordination); assay type: in vivo; conditions: male, Swiss albino (CD-1), mouse, in vivo, ip, mice
Method: (§1) All procedures were carried out in accordance with applicable Polish and international guidelines on the ethics of animal testing, after obtaining appropriate institutional approval. The substances were administered intraperitoneally (i.p.), in 1% aqueous solution of Tween, as single injections with a volume of 10 ml/kg, 30 minutes before the given test. Screening was performed on groups consisted of 4 mice. […] All tests were carried out based on the procedures described in the specialist literature.
Mice were trained the day before the actual experiment. They were placed individually on a 2 cm diameter rod rotating at 10 revolutions per minute (rpm). During each training session, the animals remained on the rod for 3 minutes. The experiment was carried out 30 minutes after administration of the compounds. Motor coordination was tested at the speed of the rotating bar: 10 rpm during 60 seconds. Motor impairments were defined as the inability to remain on the rotating rod for 1 min.
(§2) To perform a statistical evaluation of the results, one-way ANOVA variance analysis and Dunnett's post hoc test (multiple comparison test) were used. The value at the significance level p<0.05 was considered statistically significant.

[2] = Metabolic stability in human liver microsomes; assay type: in vitro ADME
Method: Metabolic stability. The metabolic stability of compound 6 was evaluated using human liver microsomes (HLMs). Internal clearance values CLint were calculated by monitoring changes in compound concentration in the presence of microsomes per unit of time, according to the procedure proposed by Obach R. S. (Obach, R. S. Drug Metab. Dispos. 1999, 27, 1350-1359).
Metabolic stability tests—methodology. Metabolic stability studies for compound 6 were performed using HLMs (Promega, Madison, WI, USA). For this purpose, 10 μL of compound 6 at a concentration of 1000 μM was diluted with 132 μL with tris-HCl buffer (100 mM, pH 7.4), followed by the addition of 8 μL of appropriate microsomes. The reaction mixture was preincubated at 37° C. for 5 minutes, followed by the addition of 50 μL of NADPH Regeneration System, supplied by Promega (Madison, WI, USA). After mixing, the whole mixture was incubated at 37° C. for 120 minutes. To complete the reaction, 200 μL of cold methanol was added to the tubes and centrifuged. The supernatant was subjected to UPLC/MS analysis, including fragmentation analysis. Four mixtures of 6 with HLMs were prepared to determine the internal clearance CLint. Each of these reactions was completed at a different time point, after 5, 15, 30 and 45 min, by the addition of cold methanol containing 50 μM internal standard. Then, according to literature guidelines (Obach, R. S. Drug Metab. Dispos. 1999, 27, 1350-1359), based on the plot of the relationship between the height of the peak from 6 and the height of the internal standard, the regression equation was determined and the reaction rate constant k was calculated. Then the constant k was substituted to equation (1).
The calculated t1/2 value was then substituted into equation (2): […]

[3] = system: male Swiss albino mice (CD-1); assay: Psychomotor seizure test 6 Hz (44 mA); assay type: in vivo; conditions: 0.5 h, mice; for 6 Hz (44 mA): number of mice protected/number of mice tested: screening, 100 mg/kg i.p.
Method: as §1
In the 6 Hz test, seizures were induced by an electric stimulus of 32 mA and/or 44 mA and a frequency of 6 pulses per second. […] Before starting the test, the eye surface was gently moistened with a solution of local anesthetic (1% lidocaine solution). The study was conducted 30 minutes after intraperitoneal administration of the compounds at various doses. An electrical pulse was delivered continuously for a period of 3 seconds, followed by observation of the animal for a period of 10 seconds. During this time, immobility or stun associated with rearing, forelimb clonus, twitching of the vibrissae and Straub's tail were observed. These symptoms persist throughout the observation period, indicating the occurrence of psychomotor seizures in mice.
as §2

[4] = system: male Swiss albino mice (CD-1); assay: Subcutaneous pentylenetetrazole seizure test (scPTZ); assay type: in vivo; conditions: 0.5 h, mice; for ED50: Mus musculus, ip; for scPTZ: number of mice protected/number of mice tested: screening, 100 mg/kg i.p.
Method: (§3) The male Swiss albino mice (CD-1) weighing 18-26 g were used. All procedures were carried out in accordance with applicable Polish and international guidelines on the ethics of animal testing, after obtaining appropriate institutional approval. The substances were administered intraperitoneally (i.p.), in 1% aqueous solution of Tween, as single injections with a volume of 10 ml/kg, 30 minutes before the given test. Screening was performed on groups consisted of 4 mice. The average effective dose (ED50) in given test and toxic dose in the rotarod test (TD50) was estimated based on the results obtained in 3-4 groups of animals consisting of 6 mice. All tests were carried out based on the procedures described in the specialist literature.
In the scPTZ test, seizures were induced by subcutaneous administration of pentylenetetrazole (PTZ) at a dose of 100 mg/kg. This caused clonic seizures with accompanying loss of the righting reflex. Test compounds were administered 30 minutes before the experiment. After PTZ administration, the animals were placed individually in transparent containers and observed for a period of 30 minutes for the occurrence of clonic seizures. During this time, the latency of the first onset of clonic seizures, defined as clonus of the whole body lasting at least 3 seconds with loss of the righting reflex and the number of seizure episodes during the test were noted and compared with control group. The absence of clonic convulsions within the observed time period was interpreted as the compound's ability to protect against PTZ-induced seizures (Ferreri, G.; Chimirri, A.; Russo, E.; Gitto, R.; Gareri, P.; De Sarro, A.; De Sarro, G. Pharmacol. Biochem. Behav. 2004, 77, 85-94; Łączkowski, K.; Sałat, K.; Misiura, K.; Podkowa, A.; Malikowska, N. J. Enzyme Inhib. Med. Chem. 2016, 31, 1576-82).
as §2

[5] = system: male Swiss albino mice (CD-1); assay: Psychomotor seizure test 6 Hz (32 mA); assay type: in vivo; conditions: Mus musculus, ip, 0.5 h, mice; for responders at 100 mg/kg: screening, 100 mg/kg i.p., read-out: 6 Hz (32 mA): number of mice protected/number of mice tested (converted)
Method: as §3
In the 6 Hz test, seizures were induced by an electric stimulus of 32 mA and/or 44 mA and a frequency of 6 pulses per second. An electrical pulse was generated using an electric shock generator (ECT Unit 57800; Ugo Basile, Gemonio, Italy) and delivered to the animal using ocular electrodes. Before starting the test, the eye surface was gently moistened with a solution of local anesthetic (1% lidocaine solution). The study was conducted 30 minutes after intraperitoneal administration of the compounds at various doses. An electrical pulse was delivered continuously for a period of 3 seconds, followed by observation of the animal for a period of 10 seconds. During this time, immobility or stun associated with rearing, forelimb clonus, twitching of the vibrissae and Straub's tail were observed. These symptoms persist throughout the observation period, indicating the occurrence of psychomotor seizures in mice. Mice resuming normal behavior within 10 s after stimulation were considered as protected (Barton, M. E.; Klein, B. D.; Wolf, H. H.; White, H. S. Epilepsy Res. 2001, 47, 217-227; Wojda, E.; Wlaź, A.; Patsalos, P. N.; Łuszczki, J. J. Epilepsy Res. 2009, 86, 163-174).
as §2

[6] = system: male Swiss albino mice (CD-1); assay: Maximal electroshock seizure test (MES); assay type: in vivo; conditions: 0.5 h, mice
Method: as §3
In the MES test, the seizures were induced by an electrical stimulus lasting of 0.2 s duration, 500 V voltage and 25 mA intensity. The electrical stimuli was generated using an electric shock generator (Rodent shocker, Type 221, Hugo Sachs Elektronik, Germany) and delivered to the animal using electrodes placed on the auricles. The study was conducted 30 minutes after intraperitoneal administration of the compounds at various doses. During the experiment, the number of animals that experienced a seizure episode in the form of tonic extension of the hind limbs was counted (Kamiński, K.; Rapacz, A.; Łuszczki, J. J.; Latacz, G.; Obniska, J.; Kieć-Kononowicz, K.; Filipek, B. Bioorg. Med. Chem. 2015, 23, 2548-2561; Castel-Branco, M. M.; Alves, G. L.; Figueiredo, I. V.; Falcão, A. C.; Caramona, M. M. Methods Find. Exp. Clin. Pharmacol. 2009, 31, 101-106).
as §2

Compound: O=C([C@@H](c1ccccc1)N1C(=O)CCC1=O)N1CCN(c2cccc(C(F)(F)F)c2)CC1 [(R)-6, (R)-1-(2-Oxo-1-phenyl-2-(4-(3-(trifluoromethyl)phenyl)piperazin-1-yl)ethyl) pyrrolidine-2,5-dione]
- TD50 at 0.5 h [1]: 468 mg/kg
- metabolites found by UPLC after incubation with HLMs ([2]; 120 min incubation, UPLC/MS): two metabolites
- CLint scaled at 50 µM ([2]; human, human liver microsomes, pH 7.4, incubation with HLMs, read-out: internal clearance CLint): 0.144 L/h/kg
- ED50 ([3]; Mus musculus, ip): 115 mg/kg
- 6 Hz (44 mA): number of mice protected/number of mice tested [3]: ¾
- ED50 [4]: 54.8 mg/kg
- scPTZ: number of mice protected/number of mice tested [4]: ¾
- ED50 [5]: 39.1 mg/kg
- responders at 100 mg/kg [5]: 100%
- ED50 ([6]; Mus musculus, ip): 36 mg/kg
- responders at 100 mg/kg ([6]; Mus musculus, ip, screening, 100 mg/kg i.p., read-out: MES: number of mice protected/number of mice tested (converted)): 100%

Compound: Cc1cccc(N2CCN(C(=O)C(c3ccccc3)N3C(=O)CCC3=O)CC2)c1 (racemic) [Compound 5, 1-(2-Oxo-1-phenyl-2-(4-(m-tolyl)piperazin-1-yl)ethyl)pyrrolidine-2,5-dione]
- TD50 at 0.5 h [1]: 171 mg/kg
- melting point: 188.7 to 192.1 °C
- 6 Hz (44 mA): number of mice protected/number of mice tested [3]: 2/4
- ED50 [4]: 57.6 mg/kg
- scPTZ: number of mice protected/number of mice tested [4]: ¾
- ED50 [5]: 35.5 mg/kg
- responders at 100 mg/kg [5]: 100%
- ED50 ([6]; Mus musculus, ip): 37.2 mg/kg
- MES: number of mice protected/number of mice tested ([6]; screening, 100 mg/kg i.p.): ¾
